Measured values from PubChem BioAssay (NCI).
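In this assay, cells in 96-well plates receive the compound at five concentrations for 48 hours. Endpoints are linearly interpolated between the surrounding concentrations. TGI is the concentration that stops growth completely.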

Tests used:
Experiment in all cases: growth of human tumour cells (NCI), 48 h
786-0 renal = system: 786-0 renal
A498 renal = system: A498 renal
A549 NSCLC = system: A549 NSCLC
ACHN renal = system: ACHN renal
BT-549 breast = system: BT-549 breast
CAKI-1 renal = system: CAKI-1 renal
COLO 205 colon = system: COLO 205 colon
DU-145 prostate = system: DU-145 prostate
HCT-116 colon = system: HCT-116 colon
HCT-15 colon = system: HCT-15 colon
HL-60(TB) leukemia = system: HL-60(TB) leukemia
HOP-62 NSCLC = system: HOP-62 NSCLC
HOP-92 NSCLC = system: HOP-92 NSCLC
HS 578T breast = system: HS 578T breast
HT29 colon = system: HT29 colon
IGROV1 ovarian = system: IGROV1 ovarian
KM12 colon = system: KM12 colon
LOX IMVI melanoma = system: LOX IMVI melanoma
M14 melanoma = system: M14 melanoma
MALME-3M melanoma = system: MALME-3M melanoma
MCF7 breast = system: MCF7 breast
MDA-MB-231 breast = system: MDA-MB-231 breast
MDA-MB-435 = system: MDA-MB-435
MDA-N = system: MDA-N
NCI-H226 lung = system: NCI-H226 lung
NCI-H23 lung = system: NCI-H23 lung
NCI-H460 lung = system: NCI-H460 lung
NCI-H522 lung = system: NCI-H522 lung
NCI/ADR-RES ovarian = system: NCI/ADR-RES ovarian
OVCAR-3 ovarian = system: OVCAR-3 ovarian
OVCAR-4 ovarian = system: OVCAR-4 ovarian
OVCAR-5 ovarian = system: OVCAR-5 ovarian
OVCAR-8 ovarian = system: OVCAR-8 ovarian
PC-3 prostate = system: PC-3 prostate
RXF 393 renal = system: RXF 393 renal
SF-268 CNS = system: SF-268 CNS
SF-295 CNS = system: SF-295 CNS
SF-539 CNS = system: SF-539 CNS
SK-MEL-2 melanoma = system: SK-MEL-2 melanoma
SK-MEL-28 melanoma = system: SK-MEL-28 melanoma
SK-MEL-5 melanoma = system: SK-MEL-5 melanoma
SK-OV-3 ovarian = system: SK-OV-3 ovarian
SN12C renal = system: SN12C renal
SNB-19 CNS = system: SNB-19 CNS
SNB-75 CNS = system: SNB-75 CNS
SR leukemia = system: SR leukemia
SW-620 colon = system: SW-620 colon
T-47D breast = system: T-47D breast
TK-10 renal = system: TK-10 renal
U251 CNS = system: U251 CNS
UACC-257 melanoma = system: UACC-257 melanoma
UACC-62 melanoma = system: UACC-62 melanoma
UO-31 renal = system: UO-31 renal
EKVX NSCLC = system: EKVX NSCLC
K-562 leukemia = system: K-562 leukemia
MOLT-4 leukemia = system: MOLT-4 leukemia
RPMI-8226 leukemia = system: RPMI-8226 leukemia

`O=[N+]([O-])c1ccc(S[C@@H]2[C@H]3c4c(-c5ccccc5)[nH]c(-c5ccccc5)c4[C@@H]2C[C@H]3Cl)cc1` was tested, and the TGI (786-0 renal) was 23.8 µM, the TGI (A498 renal) was 89 µM and the TGI (A549 NSCLC) was > 100 µM. The TGI (ACHN renal) was > 100 µM, the TGI (BT-549 breast) was 9.78 µM and the TGI (CAKI-1 renal) was > 100 µM. For the same compound, the TGI (COLO 205 colon) was > 100 µM, the TGI (DU-145 prostate) was 17.3 µM and the TGI (HCT-116 colon) was 7.86 µM. The TGI (HCT-15 colon) was 6.84 µM, the TGI (HL-60(TB) leukemia) was 24.3 µM and the TGI (HOP-62 NSCLC) was 67.6 µM. The TGI (HOP-92 NSCLC) was > 100 µM, the TGI (HS 578T breast) was 72.2 µM and the TGI (HT29 colon) was > 100 µM. The TGI (IGROV1 ovarian) was > 100 µM, the TGI (KM12 colon) was 12.3 µM and the TGI (LOX IMVI melanoma) was 15.4 µM. The TGI (M14 melanoma) was > 100 µM, the TGI (MALME-3M melanoma) was 78.9 µM and the TGI (MCF7 breast) was 16.5 µM. For the same compound, the TGI (MDA-MB-231 breast) was > 100 µM, the TGI (MDA-MB-435) was 27.8 µM and the TGI (MDA-N) was 18.6 µM. The TGI (NCI-H226 lung) was > 100 µM, the TGI (NCI-H23 lung) was 8.91 µM and the TGI (NCI-H460 lung) was 12.9 µM. The TGI (NCI-H522 lung) was 14.1 µM, the TGI (NCI/ADR-RES ovarian) was 26.4 µM and the TGI (OVCAR-3 ovarian) was 35.8 µM. For the same compound, the TGI (OVCAR-4 ovarian) was 5.4 µM, the TGI (OVCAR-5 ovarian) was > 100 µM and the TGI (OVCAR-8 ovarian) was > 100 µM. For the same compound, the TGI (PC-3 prostate) was > 100 µM, the TGI (RXF 393 renal) was 4.3 µM and the TGI (SF-268 CNS) was 25.7 µM. For the same compound, the TGI (SF-295 CNS) was > 100 µM, the TGI (SF-539 CNS) was > 100 µM and the TGI (SK-MEL-2 melanoma) was 70.9 µM. For the same compound, the TGI (SK-MEL-28 melanoma) was > 100 µM, the TGI (SK-MEL-5 melanoma) was 23.5 µM and the TGI (SK-OV-3 ovarian) was > 100 µM. The TGI (SN12C renal) was 22.2 µM, the TGI (SNB-19 CNS) was > 100 µM and the TGI (SNB-75 CNS) was 8.29 µM. For the same compound, the TGI (SR leukemia) was > 100 µM, the TGI (SW-620 colon) was > 100 µM and the TGI (T-47D breast) was 8.67 µM. The TGI (TK-10 renal) was > 100 µM, the TGI (U251 CNS) was > 100 µM and the TGI (UACC-257 melanoma) was > 100 µM. It also gave a TGI (UACC-62 melanoma) of 37.3 µM and a TGI (UO-31 renal) of 28.4 µM.
For `O=C(O)[C@@H]1[C@H](C(=O)O)[C@H](C(=O)O)C[C@@H]1C(=O)O`, the TGI (786-0 renal) was > 100 µM, the TGI (A498 renal) was > 100 µM and the TGI (A549 NSCLC) was > 100 µM. For the same compound, the TGI (ACHN renal) was > 100 µM, the TGI (BT-549 breast) was > 100 µM and the TGI (CAKI-1 renal) was > 100 µM. For the same compound, the TGI (COLO 205 colon) was > 100 µM, the TGI (DU-145 prostate) was > 100 µM and the TGI (EKVX NSCLC) was > 100 µM. The TGI (HCT-116 colon) was > 100 µM, the TGI (HCT-15 colon) was > 100 µM and the TGI (HOP-62 NSCLC) was > 100 µM. For the same compound, the TGI (HOP-92 NSCLC) was > 100 µM, the TGI (HS 578T breast) was > 100 µM and the TGI (HT29 colon) was > 100 µM. The TGI (IGROV1 ovarian) was > 100 µM, the TGI (K-562 leukemia) was > 100 µM and the TGI (KM12 colon) was > 100 µM. For the same compound, the TGI (LOX IMVI melanoma) was > 100 µM, the TGI (M14 melanoma) was > 100 µM and the TGI (MALME-3M melanoma) was > 100 µM. The TGI (MCF7 breast) was > 100 µM, the TGI (MDA-MB-231 breast) was > 100 µM and the TGI (MDA-MB-435) was > 100 µM. For the same compound, the TGI (MDA-N) was > 100 µM, the TGI (MOLT-4 leukemia) was > 100 µM and the TGI (NCI-H226 lung) was > 100 µM. The TGI (NCI-H23 lung) was > 100 µM, the TGI (NCI-H460 lung) was > 100 µM and the TGI (NCI-H522 lung) was > 100 µM. For the same compound, the TGI (NCI/ADR-RES ovarian) was > 100 µM, the TGI (OVCAR-3 ovarian) was > 100 µM and the TGI (OVCAR-4 ovarian) was > 100 µM. The TGI (OVCAR-5 ovarian) was > 100 µM, the TGI (OVCAR-8 ovarian) was > 100 µM and the TGI (PC-3 prostate) was > 100 µM. For the same compound, the TGI (RPMI-8226 leukemia) was > 100 µM, the TGI (RXF 393 renal) was > 100 µM and the TGI (SF-268 CNS) was > 100 µM. The TGI (SF-295 CNS) was > 100 µM, the TGI (SF-539 CNS) was > 100 µM and the TGI (SK-MEL-2 melanoma) was > 100 µM. The TGI (SK-MEL-28 melanoma) was > 100 µM, the TGI (SK-MEL-5 melanoma) was > 100 µM and the TGI (SK-OV-3 ovarian) was > 100 µM. For the same compound, the TGI (SN12C renal) was > 100 µM, the TGI (SNB-19 CNS) was > 100 µM and the TGI (SNB-75 CNS) was > 100 µM. For the same compound, the TGI (SR leukemia) was > 100 µM, the TGI (SW-620 colon) was > 100 µM and the TGI (T-47D breast) was > 100 µM. For the same compound, the TGI (TK-10 renal) was > 100 µM, the TGI (U251 CNS) was > 100 µM and the TGI (UACC-257 melanoma) was > 100 µM. The TGI (UACC-62 melanoma) was > 100 µM and the TGI (UO-31 renal) was > 100 µM.
